Bridge positions count the residues as written; N and C are the ends. Square brackets hold non-standard residues; d marks the D form. Peptide text beside a SMILES is read from it. * marks the point of attachment. X1 = C[C@@H]1NC(=O)[C@H](CC(=O)O)NC(=O)[C@@H](N)CSCc2cc3cc(c2)CSC[C@@H](C(=O)*)NC(=O)[C@H](CSC3)NC(=O)[C@H](CO)NC1=O; FITC = O=C1OC2(c3ccc(O)cc3Oc3cc(O)ccc32)c2ccc(NC(=S)*)cc21; S5 = C=CCCC[C@](C)(N)C(=O)O; βAla = NCCC(=O)O Where only a bound is given, the exact number is not on record here.

One data set is described as follows: circular dichroism. The conditions noted are these: PBS, pH 7.4, 25 °C.
A short description of data set [1]: In vitro peptide stability in human serum. The conditions noted are these: 25% human serum, 37 °C; for degradation behaviour in serum: up to 48 h, LC-MS. It counts as in vitro ADME. As to the method: The test compounds were separately incubated with 25% human serum at 37 °C; residual starting materials were monitored as a function of time, and degradation products were characterized using LC-MS (Figure 5c). […] Besides terminal degradation, we also observed ring-opening products by hydrolysis of amide bonds within the hydrocarbon macrocycles in two stapled peptides (Figures S28, S29).

A further data set deals with T1, cyclin A1 with a His tag (Homo sapiens, UniProt P78396).
T1 construct: His; purchased Sino Biological
Description: Direct fluorescence polarization (FP) binding to cyclin A1. The conditions noted are these: Figure 5b; FITC-labeled peptide, PBS, 3 h; read-out: FP assay for cyclin A: Kd^app. For orientation: Fluorescence polarisation rises when a labelled molecule tumbles more slowly, as on binding a larger partner.

The nature of data set [2]: 25 % human serum diluted in RPMI medium. The conditions noted are these: 37 °C, up to 48 hours (dual 0 – 72 hours in Figure S24).
Where [3] appears, read: residual starting material vs time, LC-MS/HPLC, 95% confidence interval in parentheses.

T1 sequence (P78396 whole entry): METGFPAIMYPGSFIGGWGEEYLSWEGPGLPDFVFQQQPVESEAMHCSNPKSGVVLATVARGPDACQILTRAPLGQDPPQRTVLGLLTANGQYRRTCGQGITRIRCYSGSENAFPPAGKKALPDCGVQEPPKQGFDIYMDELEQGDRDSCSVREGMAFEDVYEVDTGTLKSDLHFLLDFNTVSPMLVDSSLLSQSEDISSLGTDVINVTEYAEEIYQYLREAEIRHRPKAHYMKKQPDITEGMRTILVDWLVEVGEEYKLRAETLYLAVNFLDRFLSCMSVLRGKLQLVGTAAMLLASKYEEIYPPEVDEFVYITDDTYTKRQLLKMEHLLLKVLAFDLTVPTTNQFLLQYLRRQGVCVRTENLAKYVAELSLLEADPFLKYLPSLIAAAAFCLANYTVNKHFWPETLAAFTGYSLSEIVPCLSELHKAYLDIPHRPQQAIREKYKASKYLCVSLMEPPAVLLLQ

As to `CC[C@H](C)[C@H](NC(=O)[C@@H]1CSCc2cc3cc(c2)CSC[C@H](N)C(=O)N[C@@H](CC(=O)O)C(=O)N[C@@H](C)C(=O)N[C@@H](CO)C(=O)N[C@@H](CSC3)C(=O)N1)C(=O)N[C@@H](CCCNC(=N)N)C(=O)N[C@@H](CCC(=O)O)C(=O)N[C@H](C(=O)N[C@@H](CO)C(=O)N[C@@H](CC(C)C)C(=O)N[C@@H](CC(C)C)C(=O)N[C@@H](CCCCN)C(=O)N[C@@H](CCC(=O)O)C(=O)N[C@@H](Cc1ccc(O)cc1)C(N)=O)[C@@H](C)CC` [BAMM] (X1-IREISLLKEY-NH2), in “circular dichroism” (5-30 uM), the helicity was -5590 MRE222. Besides, the “degradation behaviour in serum” value in data set [1] was “hydrolyzed more slowly and formed stable byproducts”. Further, the half-life – broadly, the time needed for the level to fall by half in the phase considered – in data set [1] (setting [3]) is 2.1 h.
`CC[C@H](C)[C@H](NC(=O)[C@H](C)NC(=O)[C@@H](NC(=O)[C@H](CO)NC(=O)[C@H](C)NC(C)=O)[C@@H](C)O)C(=O)N[C@@H](CCCNC(=N)N)C(=O)N[C@@H](CCC(=O)O)C(=O)N[C@H](C(=O)N[C@@H](CO)C(=O)N[C@@H](CC(C)C)C(=O)N[C@@H](CC(C)C)C(=O)N[C@H]1CSCc2cc3cc(c2)CSC[C@H](NC(=O)[C@H](Cc2ccc(O)cc2)NC(=O)[C@H](CCC(=O)O)NC1=O)C(=O)NCC(=O)N[C@H](C(N)=O)CSC3)[C@@H](C)CC` [BSM]: the helicity in the data set “circular dichroism” (5-30 uM) is -5000 MRE222. Moreover, the “degradation behaviour in serum” value in data set [1] is “hydrolyzed more slowly and formed stable byproducts”. Besides, the half-life in data set [1] (setting [3]) was 2.6 h.
As for `CC[C@H](C)[C@H](NC(=O)[C@@H]1CSCc2cc3cc(c2)CSC[C@H](N)C(=O)N[C@@H](CC(=O)O)C(=O)N[C@@H](C)C(=O)N[C@@H](CO)C(=O)N[C@@H](CSC3)C(=O)N1)C(=O)N[C@@H](CCCNC(=N)N)C(=O)N[C@@H](CCC(=O)O)C(=O)N[C@H](C(=O)N[C@@H](CO)C(=O)N[C@@H](CC(C)C)C(=O)N[C@@H](CC(C)C)C(=O)N[C@H]1CSCc2cc3cc(c2)CSC[C@H](NC(=O)[C@H](Cc2ccc(O)cc2)NC(=O)[C@H](CCC(=O)O)NC1=O)C(=O)NCC(=O)N[C@H](C(N)=O)CSC3)[C@@H](C)CC` [dual], in the data set “circular dichroism” (13 uM), the helicity was -11300 MRE222. Further, in data set [1], the “t1/2 relative to staple-2” value was > 5.6 ×; the “t1/2 relative to the linear control” value was > 49 ×; the “degradation behaviour in serum” value is recorded as “oxidation (sulfoxides, M^++16) but not proteolysis was observed”. Besides, the “half-life (h)” value in data set [1] (setting [3]) is 39.5 (>19.3) h.
`CC[C@H](C)[C@@H]1NC(=O)[C@H](C)NC(=O)[C@@](C)(NC(=O)[C@H](CO)NC(=O)[C@H](C)NC(=O)CCNC(=O)CCNC(=O)CCNC(=S)Nc2ccc3c(c2)C(=O)OC32c3ccc(O)cc3Oc3cc(O)ccc32)CCCC=CCCC[C@@](C)(C(=O)N[C@H](C(=O)N[C@@H](CO)C(=O)N[C@@H](CC(C)C)C(=O)N[C@@H](CC(C)C)C(=O)N[C@@H](CCCCN)C(=O)N[C@@H](CCC(=O)O)C(=O)N[C@@H](Cc2ccc(O)cc2)C(N)=O)[C@@H](C)CC)NC(=O)[C@H](CCCNC(=N)N)NC1=O` [staple-1-f] ({FITC-βAla-βAla-βAla}-AS[S5]AIR[S5]ISLLKEY-NH2; staple 3-7): the Kd at cyclin A1 with a His tag was 1470 ± 210 nM.
In the case of `CC[C@H](C)[C@@H]1NC(=O)[C@H](C)NC(=O)[C@@](C)(NC(=O)[C@H](CO)NC(=O)[C@H](C)NC(C)=O)CCCC=CCCC[C@@](C)(C(=O)N[C@H](C(=O)N[C@@H](CO)C(=O)N[C@@H](CC(C)C)C(=O)N[C@@H](CC(C)C)C(=O)N[C@@H](CCCCN)C(=O)N[C@@H](CCC(=O)O)C(=O)N[C@@H](Cc2ccc(O)cc2)C(N)=O)[C@@H](C)CC)NC(=O)[C@H](CCCNC(=N)N)NC1=O` [staple-1] (Ac-AS[S5]AIR[S5]ISLLKEY-NH2; staple 3-7), the helicity in “circular dichroism” (17 uM) was -13200 MRE222. The “degradation behaviour in serum” value in data set [1] was “overall higher stabilities”. Moreover, the half-life in data set [1] (setting [3]) was 5.7 h.
As for `CC[C@H](C)[C@H](NC(=O)[C@H](C)NC(=O)[C@@H](NC(=O)[C@H](CO)NC(=O)[C@H](C)NC(C)=O)[C@@H](C)O)C(=O)N[C@@H](CCCNC(=N)N)C(=O)N[C@@]1(C)CCCC=CCCC[C@@](C)(C(=O)N[C@@H](CCCCN)C(=O)N[C@@H](CCC(=O)O)C(=O)N[C@@H](Cc2ccc(O)cc2)C(N)=O)NC(=O)[C@H](CC(C)C)NC(=O)[C@H](CO)NC(=O)[C@H]([C@@H](C)CC)NC1=O` [staple-2] (Ac-ASTAIR[S5]ISL[S5]KEY-NH2; staple 7-11), in the data set “circular dichroism” (22 uM), the helicity was -11100 MRE222. Also, in data set [1], the “degradation behaviour in serum” value was “overall higher stabilities”. The half-life in data set [1] (setting [3]) is 7 h.
Turning to Ac-ASTAIREISLLCEYCGC, the fragment found entry in data set [2] is “CEYCGC (BSM bicycle), major”.
Regarding Ac-ASTAIREISLLKEY-NH2, the helicity in the data set “circular dichroism” (5-30 uM) is -3310 MRE222.
Take CDASCCIREISLLCEYCGC: the fragment found entry in data set [2] is reported as “sulfoxide dual; oxidized dual, 8h”.
On the same count and under the same terms, for CDASCCIREISLLKEY the value was “CDASCCIRE (BAMM bicycle with three residues), major”.

The record behind these values is publication PMC11027154 (Journal of the American Chemical Society, 2024).
